Positions of bridges follow the written chain, without caps; N, C: chain ends. Non-standard residues stand in square brackets, D forms with d. Residues, ends and D or L forms follow the SMILES beside them.
Legend:
[1] = biological target: T1, ER alpha (Homo sapiens, UniProt P03372); experiment: competition binding assay against a model linear peptide sequence (estrogen receptor-coactivator interaction), ER alpha; conditions: competition binding assay (Lilly Research Labs); read-out: Ki ER α
T1 sequence (P03372 1-595): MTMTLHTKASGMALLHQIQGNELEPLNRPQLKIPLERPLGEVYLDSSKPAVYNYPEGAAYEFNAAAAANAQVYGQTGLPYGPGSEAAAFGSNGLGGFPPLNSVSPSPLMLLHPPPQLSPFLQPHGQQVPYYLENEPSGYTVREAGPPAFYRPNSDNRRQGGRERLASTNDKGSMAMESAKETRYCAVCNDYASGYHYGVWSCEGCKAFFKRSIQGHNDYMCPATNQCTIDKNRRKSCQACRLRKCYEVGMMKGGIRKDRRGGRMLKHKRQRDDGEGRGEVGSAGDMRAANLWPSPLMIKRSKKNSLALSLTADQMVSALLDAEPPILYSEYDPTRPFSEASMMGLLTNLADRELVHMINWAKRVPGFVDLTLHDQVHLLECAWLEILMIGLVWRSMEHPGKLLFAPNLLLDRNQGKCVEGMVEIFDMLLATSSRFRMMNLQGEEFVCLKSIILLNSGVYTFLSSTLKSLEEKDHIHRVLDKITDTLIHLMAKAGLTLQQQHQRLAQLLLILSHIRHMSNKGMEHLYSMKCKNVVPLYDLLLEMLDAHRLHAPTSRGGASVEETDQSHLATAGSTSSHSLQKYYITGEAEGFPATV
Protocol: (§1) The synthetic helicormimetic peptides designed as antagonists of the estrogen receptor-coactivator interactions were tested in a competition binding assay (Lilly Research Labs) against a model linear peptide sequence. Activities are reported in the Table below in Ki values, with two of the best analogs labeled as PERM-1 and PERM-2, or Peptidomimetic Estrogen Receptor Modulators.

[2] = biological target: ER beta (Homo sapiens, UniProt Q92731); experiment: competition binding assay against a model linear peptide sequence (estrogen receptor-coactivator interaction), ER beta; conditions: competition binding assay (Lilly Research Labs); read-out: Ki ER β
Protocol: as §1

Sequence of ER beta (Q92731 whole entry): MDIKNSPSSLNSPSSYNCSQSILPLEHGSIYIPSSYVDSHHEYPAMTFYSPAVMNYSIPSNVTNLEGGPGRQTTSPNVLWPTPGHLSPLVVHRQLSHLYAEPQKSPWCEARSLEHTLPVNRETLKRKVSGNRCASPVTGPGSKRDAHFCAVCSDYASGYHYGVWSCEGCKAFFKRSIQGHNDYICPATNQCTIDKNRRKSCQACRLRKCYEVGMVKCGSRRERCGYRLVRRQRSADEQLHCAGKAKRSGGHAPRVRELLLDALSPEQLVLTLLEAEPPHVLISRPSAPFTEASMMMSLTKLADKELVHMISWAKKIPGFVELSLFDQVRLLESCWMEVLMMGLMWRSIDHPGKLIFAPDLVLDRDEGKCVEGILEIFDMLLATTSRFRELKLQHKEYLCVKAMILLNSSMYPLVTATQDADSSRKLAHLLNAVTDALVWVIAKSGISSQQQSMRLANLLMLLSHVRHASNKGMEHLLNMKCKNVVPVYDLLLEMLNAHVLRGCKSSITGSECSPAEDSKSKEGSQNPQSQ

Row | Structure (SMILES) | Ki [1] [nM] | Ki [2] [nM]
1 | CC[C@H](C)[C@@H]1NC(=O)[C@H](NC(=O)[C@H](N)CCCCN)CSSC[C@@H](C(=O)N[C@@H](CCCNC(=N)N)C(=O)N[C@@H](CC(C)C)C(=O)N[C@@H](CC(C)C)C(=O)N[C@@H](CCC(N)=O)C(N)=O)NC(=O)[C@H](CC(C)C)NC1=O [AKG-I-28, H-D-Lys-cyclo (D-Cys-Ile-Leu-Cys)-Arg-Leu-Leu-Gln-NH2] (H-[dK][dC]ILCRLLQ-NH2; disulfide 2-5) | 220 | 1900
2 | CC[C@H](C)[C@@H]1NC(=O)[C@@H](NC(=O)[C@@H](N)CCCCN)CSC[C@@H](C(=O)N[C@@H](CCCNC(=N)N)C(=O)N[C@@H](CC(C)C)C(=O)N[C@@H](CC(C)C)C(=O)N[C@@H](CCC(N)=O)C(N)=O)NC(=O)[C@H](CC(C)C)NC1=O [AKG-I-39, H-Lys-cyclo (Ala-Ile-Leu-Ala)- Arg-Leu-Leu-Gln-NH2, Lanthionine] | 1180 | 15400
3 | CC[C@H](C)[C@@H]1NC(=O)[C@H](NC(=O)[C@H](CC(C)C)NC(=O)[C@H](CC(C)C)NC(=O)[C@@H](N)CCCCN)CSSC[C@@H](C(=O)N[C@@H](CCCNC(=N)N)C(=O)N[C@@H](CC(C)C)C(=O)N[C@@H](CC(C)C)C(=O)N[C@@H](CCC(N)=O)C(N)=O)NC(=O)[C@H](CC(C)C)NC1=O [AKG-I-46, H-Lys-Leu-Leu-cyclo(D-Cys-Ile-Leu-Cys)-Arg-Leu-Leu-Gln-NH2] (H-KLL[dC]ILCRLLQ-NH2; disulfide 4-7) | 398 | 2000
4 | CC[C@H](C)[C@@H]1NC(=O)[C@H](NC(=O)[C@@H](N)CCCNC(=N)N)CSSC[C@@H](C(=O)N[C@@H](CCCNC(=N)N)C(=O)N[C@@H](CC(C)C)C(=O)N[C@@H](CC(C)C)C(=O)N[C@@H](CCC(N)=O)C(N)=O)NC(=O)[C@H](CC(C)C)NC1=O [AKG-I-50, H-Arg-cyclo(D-Cys-Ile-Leu-Cys)-Arg-Leu-Leu-Gln-NH2] (H-R[dC]ILCRLLQ-NH2; disulfide 2-5) | 11 | 77
5 | CC[C@H](C)[C@@H]1NC(=O)[C@H](CC(C)C)NC(=O)[C@@H](NC(=O)[C@@H](N)CCCCN)CSSC[C@H](C(=O)N[C@@H](CCCNC(=N)N)C(=O)N[C@@H](CC(C)C)C(=O)N[C@@H](CC(C)C)C(=O)N[C@@H](CCC(N)=O)C(N)=O)NC1=O [AKG-I-59, H-Lys-cyclo(Cys-Leu-Ile-D-Cys)-Arg-Leu-Leu-Gln-NH2] (H-KCLI[dC]RLLQ-NH2; disulfide 2-5) | 2100 | 17000
6 | CC[C@H](C)[C@@H]1NC(=O)[C@@H](NC(=O)[C@@H](N)CCCCN)CSSC[C@H](C(=O)N[C@@H](CCCNC(=N)N)C(=O)N[C@@H](CC(C)C)C(=O)N[C@@H](CC(C)C)C(=O)N[C@@H](CCC(N)=O)C(N)=O)NC(=O)[C@H](CC(C)C)NC1=O [AKG-I-60, H-Lys-cyclo(Cys-Ile-Leu-D-Cys)-Arg-Leu-Leu-Gln-NH2] (H-KCIL[dC]RLLQ-NH2; disulfide 2-5) | 2400 | 7200
7 | CC[C@H](C)[C@@H]1NC(=O)[C@H](NC(=O)[C@@H](N)CCCCN)CSSC[C@H](C(=O)N[C@@H](CCCNC(=N)N)C(=O)N[C@@H](CC(C)C)C(=O)N[C@@H](CC(C)C)C(=O)N[C@@H](CCC(N)=O)C(N)=O)NC(=O)[C@H](CC(C)C)NC1=O [AKG-I-61, H-Lys-cyclo(D-Cys-Ile-Leu-D-Cys)-Arg-Leu-Leu-Gln-NH2] (H-K[dC]IL[dC]RLLQ-NH2; disulfide 2-5) | 928 | 3900
8 | CC(C)C[C@H](NC(=O)[C@H](CC(C)C)NC(=O)[C@H](CCCNC(=N)N)NC(=O)[C@H]1CSSC[C@H](NC(=O)[C@@H](N)CCCCN)C(=O)N[C@@H](CC(C)C)C(=O)N1)C(=O)N[C@@H](CCC(N)=O)C(N)=O [AKG-I-63, H-Lys-cyclo(Cys-Leu-D-Cys)-Arg-Leu-Leu-Gln-NH2] (H-KCL[dC]RLLQ-NH2; disulfide 2-4) | 2200 | 7900
9 | CC(C)C[C@H](NC(=O)[C@H](CC(C)C)NC(=O)[C@H](CCC(N)=O)NC(=O)[C@H](CCC(=O)O)NC(=O)[C@H](CC(C)C)NC(=O)CC1O[C@H](CO)[C@@H](O)[C@H](O)[C@@H]1O)C(=O)O (stereo partly drawn) [AML-I-31, Mannosylacetvl-Leu-Glu-Gln-Leu-Leu-OH] |  | 339000

Reference: US20050054770A1, “Helicomimetics and stabilized lxxll peptidomimetics” (priority 2001, published 2005)
